Measured values: PMC3750255, “Inhibition of Mycoplasma pneumoniae growth by FDA-approved anticancer and antiviral nucleoside and nucleobase analogs” (BMC Microbiology, 2013)
Values after ≈ are worked out from the molar mass of the structure shown.

T1: TK in Mpn extracts (Mycoplasmoides pneumoniae, UniProt P75070)
T1 construct: endogenous in cells; host or cells: Mycoplasma pneumoniae M129 total protein extract
T1 sequence (P75070 1-191): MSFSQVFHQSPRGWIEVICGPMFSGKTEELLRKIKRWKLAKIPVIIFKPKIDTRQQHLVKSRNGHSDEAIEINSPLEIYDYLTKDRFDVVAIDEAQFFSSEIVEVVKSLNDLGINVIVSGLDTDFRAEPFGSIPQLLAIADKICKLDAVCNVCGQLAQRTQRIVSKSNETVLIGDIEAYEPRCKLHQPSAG

T2: human TK1 (Homo sapiens, UniProt P04183)
T2 construct: made in house
T2 sequence (P04183 1-234): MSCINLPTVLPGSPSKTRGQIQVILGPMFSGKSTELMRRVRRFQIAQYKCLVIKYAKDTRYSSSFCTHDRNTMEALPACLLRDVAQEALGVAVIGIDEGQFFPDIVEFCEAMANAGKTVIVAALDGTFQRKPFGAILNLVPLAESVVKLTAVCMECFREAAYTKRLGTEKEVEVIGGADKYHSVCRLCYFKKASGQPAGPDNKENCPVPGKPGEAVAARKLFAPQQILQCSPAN

T3: Ureaplasma TK (Ureaplasma parvum serovar 3, UniProt Q9PPP5)
T3 construct: made in house
T3 sequence (Q9PPP5 1-223): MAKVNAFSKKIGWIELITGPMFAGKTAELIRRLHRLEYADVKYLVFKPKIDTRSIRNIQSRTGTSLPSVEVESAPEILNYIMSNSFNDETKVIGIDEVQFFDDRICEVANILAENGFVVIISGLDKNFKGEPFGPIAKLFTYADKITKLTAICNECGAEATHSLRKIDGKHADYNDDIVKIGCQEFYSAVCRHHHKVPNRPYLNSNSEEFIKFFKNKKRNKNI

T4: human TK2 (Homo sapiens, UniProt O00142)
T4 construct: made in house
T4 sequence (O00142 34-265): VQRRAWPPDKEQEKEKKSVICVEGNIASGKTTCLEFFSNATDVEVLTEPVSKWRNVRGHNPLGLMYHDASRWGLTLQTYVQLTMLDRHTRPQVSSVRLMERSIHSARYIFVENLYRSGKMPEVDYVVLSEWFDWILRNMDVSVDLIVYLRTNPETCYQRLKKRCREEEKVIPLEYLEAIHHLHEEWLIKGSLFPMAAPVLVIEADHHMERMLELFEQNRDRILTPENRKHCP

B1: Mpn HPRT (Mycoplasmoides pneumoniae M129) (protein)
chain: MGIKSIIIDQKQVEAGCNAALKWCNEHFAGKQVIVLGILKGCIPFLGKLISQFTFDLQLDFVAVASYHGGSRQQEAPKIVLDMSHDPKGKDILLIEDIVDSGRSIKLVLDLLHTRKAKSVILVSFIEKLKPREADIKVDYSCFKNQDEFLVGFGLDYQGFYRNLPYVGVFDPEDN

What was measured:
TK in Mpn extracts = target: T1, TK in Mpn extracts; experiment: Inhibition of dT phosphorylation in Mpn protein extracts; type: biochemical
Procedure: Both TFT and 5FdU are substrates of Mycoplasma and human TKs, as described above and earlier studies.
(§1) Thymidine kinase assay was performed using tritium labelled thymidine ([^3H]-dT) as substrate and various concentrations of the inhibitors essentially as previously described to determine the IC50 values of TFT and 5FdU.

[1] = system: M. pneumoniae wild type (laboratory strain M129); experiment: Mpn growth inhibition in 96-well plates (growth index A450/A560), wild type strain; type: cell-based, Mycoplasma pneumoniae; conditions: Mycoplasmoides pneumoniae, read-out: Wild type MIC
Procedure: (§2) A series dilution of each compound in Mycoplasma growth medium was added to Mpn cultures in 96-well plates. The plates were sealed and incubated at 37°C. Mpn growth was monitored by using growth index value e.g. the ratio of absorbance at 450 nm and 560 nm of the culture medium. Thirty nucleoside and nucleobase analogs and a nucleoside transporter inhibitor were included, and two Mpn strains, wild type and a thyA mutant (lacking TS activity), were used.
(§3) Nucleoside and nucleobase analogs were dissolved in dimethyl sulfoxide (DMSO) as stock solutions and diluted with Mpn culture medium to the desired concentration immediately prior to use.
(§4) Mpn laboratory strain M129 wild type and a thyA mutant strain [31] were used in this study. Mpn was cultured at 37°C in a CO2 incubator using 75 cm^2 tissue culture flasks containing 50 ml Hayflick’s medium, and harvested at day 4 when the medium color change was observed. The cells were harvested and the pellet was resuspended in 6 ml fresh medium and the cfu/ml was determined by serial dilution (10-fold) and plating on broth agar plate. Colonies was counted and cfu/ml was calculated.
(§5) Inhibition studies were performed in 96-well plates containing 200 μl Mpn culture (approximately 10^6 cfu ml^-1) in Hayflick’s medium and 200 μl each compound in series dilutions (2-fold) with the growth medium, with three to four replicas. The plates were sealed with clear adhesive sheets and incubated at 37°C incubator. Absorbance ratio at 450 nm and 560 nm was used as Mpn growth index, which was measured daily, and by visual detection for at least 8 days, as previously described. […] The MICs (minimal inhibitory concentration required to inhibit Mpn growth to 90%) were determined as the lowest concentration at which the growth index was ≈ 10% of the control values (at the time when the control culture medium color turned yellow), essentially as described.

[2] = system: M. pneumoniae thyA mutant (lacking TS activity); experiment: microbe, parasite or virus in culture; type: cell-based, Mycoplasma pneumoniae; conditions: Mycoplasmoides pneumoniae, read-out: thyA mutant MIC
Procedure: as §2, §3, §4, §5

Mpn wild type cells = experiment: Uptake and metabolism of tritium labelled natural nucleoside and nucleobases in the presence of analogs; type: cell-based, Mycoplasma pneumoniae
Procedure: The cells were harvested and analyzed essentially as described. Analogs used were dipyridamole, 6-thioguanine (6-TG), trifluorothymidine (TFT), gemcitabine (dFdC) and 5-fluorodeoxyuridine (5FdU). Total uptake is the percent of radioactivity recovered in the cells divided by total radioactivity added to the growth medium. Percent of acid insoluble (radioactivity found in DNA and RNA) was also calculated. These experiments were done more than three times and data are given as mean ± SD.

human TK1 = target: T2, human TK1; experiment: Thymidine kinase inhibition with [3H]-dT as substrate; type: biochemical; conditions: 10 μM tritium labelled thymidine
Procedure: as §1

Ureaplasma TK = target: T3, Ureaplasma TK; experiment: as above; type: biochemical; conditions: 10 μM tritium labelled thymidine
Procedure: as §1

human TK2 = target: T4, human TK2; experiment: as above; type: biochemical; conditions: 10 μM tritium labelled thymidine
Procedure: as §1

[3] = substrate: O=c1[nH]cnc2nc[nH]c12; experiment: purified protein, by the assay type; conditions: other: as substrate of Mpn HPRT, Michaelis-Menten; pH 7.5; 37.0 °C
[4] = 10 μM analog, 70 hours, 37°C, radioactivity in cells / total added
[5] = 10 μM analog, 70 hours, acid insoluble fraction / total in cells

Molecule	IC50 (TK in Mpn extracts)	MIC [1]	MIC [2]	Stimulation of [3H]-dT uptake (Mpn wild type cells; 10 μM analog versus control)	[3H]-Ade Total uptake (Mpn wild type cells; [4])	[3H]-Gua Total uptake (Mpn wild type cells; [4])	[3H]-Hx Total uptake (Mpn wild type cells; [4])	[3H]-Ura Total uptake (Mpn wild type cells; [4])	[3H]-dT Total uptake (Mpn wild type cells; [4])	[3H]-Ade Incorporation (Mpn wild type cells; [5])	[3H]-Gua Incorporation (Mpn wild type cells; [5])	[3H]-Hx Incorporation (Mpn wild type cells; [5])	[3H]-Ura Incorporation (Mpn wild type cells; [5])	[3H]-dT Incorporation (Mpn wild type cells; [5])	IC50 (human TK1)	IC50 (Ureaplasma TK)	IC50 (human TK2)	Km [3]
O=c1[nH]c(=O)n([C@H]2C[C@H](O)[C@@H](CO)O2)cc1F [5-fluorodeoxyuridine (5FdU), 5-fluorodeoxyuridine]	47.9 ± 1.2 µM	7.8 µg/mL (≈ 31.7 µM)	15.6 µg/mL (≈ 63.4 µM)	2 fold	0.36±0.1%	0.16±0.03%	0.006± 0.001%	0.087±0.003%	14.7±0.2%	42±2%	87±3%	76±4%	19±7%	96.0±0.5%	75.9 ± 2.6 µM	1000 ± 13.3 µM	158 ± 2.7 µM	
B1																		100.1 ± 6.5 µM
